# Like-named read-outs stand apart in the source and are kept apart here.
# Assays:
# [1] = molecular target: T1, HCV NS5B polymerase (His-tagged, C-terminal 21 amino acid deleted NS5B, HC-J4) (Hepatitis C virus genotype 1b, UniProt O92972); test: NS5b polymerase assay (biochemical RdRp assay, 3H-GTP incorporation, SPA beads); parameters: species or system HCV genotype 1b
# T1 construct: The cDNA encoding NS5B amino acid 1-570 (HC-J4, genotype 1b); His tag (His6, from pET-21b) (C); made in house; host or cells: E. coli BL21 (DE3)
# T1 sequence (O92972 2417-3000, looked up, stated change not applied): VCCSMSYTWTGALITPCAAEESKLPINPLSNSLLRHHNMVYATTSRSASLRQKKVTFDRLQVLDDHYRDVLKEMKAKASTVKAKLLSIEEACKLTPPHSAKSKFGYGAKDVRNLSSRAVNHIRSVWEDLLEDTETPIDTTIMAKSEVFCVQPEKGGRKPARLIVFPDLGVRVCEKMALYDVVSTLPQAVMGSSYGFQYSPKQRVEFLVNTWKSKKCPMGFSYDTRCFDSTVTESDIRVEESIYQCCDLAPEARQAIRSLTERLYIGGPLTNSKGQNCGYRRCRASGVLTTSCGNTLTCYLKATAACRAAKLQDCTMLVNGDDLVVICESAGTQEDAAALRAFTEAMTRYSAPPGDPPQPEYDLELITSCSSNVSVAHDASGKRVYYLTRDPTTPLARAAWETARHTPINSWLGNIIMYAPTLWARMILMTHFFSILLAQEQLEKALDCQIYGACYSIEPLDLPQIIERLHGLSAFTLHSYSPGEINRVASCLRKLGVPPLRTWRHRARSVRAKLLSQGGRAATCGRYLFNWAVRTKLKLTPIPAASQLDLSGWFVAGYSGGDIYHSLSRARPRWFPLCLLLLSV
# Protocol: (§1) The compounds of formula (I) were tested for anti-HCV activity in an assay determining their activity against NS5b polymerase and in an HCV replicon assay
# The cDNA encoding NS5B amino acid 1-570 (HC-J4, genotype 1b, pCV-J4L6S, genebank accession number AF054247) was subcloned into the Nhe I and Xho I restriction sites of pET-21b. Expression of the subsequent His-tagged C-terminal 21 amino acid deleted NS5B was performed as follows:
# Following transformation in BL21 (DE3) competent cells, bacterial cells were grown in 22 liter LB/Amp media until to reach OD600=0.4-0.6. Protein expression was induced by addition of IPTG 0.4 mM, supplemented with 10 μM MgCl2, and incubated for 14-16 hrs at 20° C. Cells were harvested, resuspended in lysis buffer (20 mM Tris-HCl pH=7.5, 0.3 M NaCl, 10% glycerol, 0.1% NP40, 4 mM MgCl2, 14 mM beta-mercaptoethanol, with tablet of EDTA-free protease cocktail inhibitors) and lysed by sonification. The cell lysate was cleared by high-speed centrifugation (20K×g for 30 min), captured on Ni-NTA beads for 70 min at 4° C., and eluted with 25 mM Hepes pH 7.5, 0.5 M NaCl, 10% glycerol, 14 mM BME, 500 mM imidazole. The eluent was dialysed against 25 mM Hepes pH 7.5, 10% glycerol, 50 mM NaCl, 14 mM BME, after which the protein was further purified by heparin chromatography using the same buffer with 1 M NaCl for elution. Fractions containing pure protein were collected, dialyzed against storage buffer 25 mM Hepes pH=7.5, 300 mM NaCl, 10% glycerol, 14 mM BME), and flash-freezed in liquid nitrogen.
# Measurement of HCV NS5B polymerization activity was performed by evaluating the amount of radiolabeled GTP incorporated by the enzyme in a newly synthesized RNA using heteropolymeric RNA template/primer. The highthroughput RdRp assay was carried out in 384-well plates using 200 nM enzyme, 0.1 μCi of ^3H GTP, 5 mM MgCl2, 600 nM GTP, 30 nM PolyC, 300 nM 5′-biotinylated oligo(rG13)/poly(rC) in 20 mM Tris pH 7.5, 21 mM KCl, 2.5 mM DTT, 16.7 mM NaCl and 0.17 mM EDTA. Test compounds were dissolved in dimethylsulfoxide. The test compounds were added to the preformed polymerase-template complex, and incubated at room temperature (RT) for 15 min before the addition of NTPs. The 30-μl reaction was terminated after 2 h at 25° C. upon addition of 30-μl PVT-SPA beads (Amersham Biosciences RPNQ0009, 5 mg/ml in 0.5 M EDTA).
# [2] = system: HCV replicon RNA replication in Huh-7 luc/neo (Huh-Luc) cells; test: HCV replicon assay (stable replicon cell reporter assay, luciferase read-out); assay type: cell-based, HCV type 1b
# Protocol: as §1
# The compounds of the present invention were examined for activity in the inhibition of HCV RNA replication in a cellular assay. […] The cellular assay was based on a bicistronic expression construct, as described by Lohmann et al. (1999) Science vol. 285 pp. 110-113 with modifications described by Krieger et al. (2001) Journal of Virology 75: 4614-4624, in a multi-target screening strategy. In essence, the method was as follows.
# The assay utilized the stably transfected cell line Huh-7 luc/neo (hereafter referred to as Huh-Luc). This cell line harbored an RNA encoding a bicistronic expression construct comprising the wild type NS3-NS5B regions of HCV type 1b translated from an Internal Ribosome Entry Site (IRES) from encephalomyocarditis virus (EMCV), preceded by a reporter portion (FfL-luciferase), and a selectable marker portion (neo^R, neomycine phosphotransferase). The construct was bordered by 5′ and 3′ NTRs (non-translated regions) from HCV type 1b. Continued culture of the replicon cells in the presence of G418 (neo^R) was dependent on the replication of the HCV RNA. The stably transfected replicon cells that expressed HCV RNA, which replicated autonomously and to high levels, encoding inter alia luciferase, were used for screening the antiviral compounds.
# The replicon cells were plated in 384 well plates in the presence of the test and control compounds which were added in various concentrations. Following an incubation of three days, HCV replication was measured by assaying luciferase activity (using standard luciferase assay substrates and reagents and a Perkin Elmer ViewLux™ ultraHTS microplate imager). […] The inhibitory activity of the compound on luciferase activity was monitored on the Huh-Luc cells, enabling a dose-response curve for each test compound.
# [3] = NS5B Polymerase Assay IC50, 200 nM enzyme, 3H-GTP incorporation, 2 h at 25° C.
# [4] = Hepatitis C virus, Huh-7, 72 h, read-out: Replicon Assay EC50, Huh-Luc cells, three days incubation, luciferase activity
# [5] = read-out: Replicon Assay EC50, Huh-Luc cells, three days incubation, luciferase activity
# [6] = read-out: NS5B Polymerase Assay IC50, 200 nM enzyme, 3H-GTP incorporation, 2 h at 25° C.
# [7] = read-out: NS5B Polymerase Assay IC50
# [8] = read-out: Replicon Assay EC50, Huh-Luc cells, incubation of three days, luciferase activity
# [9] = NS5B Polymerase Assay IC50 (μM)
# [10] = Hepatitis C virus, Huh-7, 72 h, read-out: Replicon Assay EC50 (μM), Huh-Luc cells, incubation of three days, luciferase activity
SMILES,"IC50 [1, 3] [µM]","EC50 [2, 4] [µM]",further results
"CC(=O)N1c2ccccc2NC2=C(C(=O)CC(c3ccccc3OCc3ccccc3)C2)C1c1ccc(Cl)cc1Cl (single isomer, unassigned) [compound 186, 10-Acetyl-3-(2-benzyloxyphenyl)-11-(2,4-dichlorophenyl)-2,3,4,5,10,11-hexahydro-dibenzo[b,e][1,4]diazepin-1-one]",40.9,2.03,
"CC(=O)N1c2ccccc2NC2=C(C(=O)CC(c3ccccc3OCc3ccccc3)C2)C1c1cccc(OCc2ccccc2)c1 (single isomer, unassigned) [compound 189]",> 42.7,,"EC50 [2, 5]: 3.99 µM"
"CC(=O)N1c2ccccc2NC2=C(C(=O)CC(c3ccccc3OCc3ccccc3)C2)C1c1cccc(OCc2ccccc2)c1 (single isomer, unassigned) [compound 190]",,,"IC50 [1, 6]: > 42.7 µM; EC50 [2, 5]: 1.09 µM"
"CC(=O)N1c2ccccc2NC2=C(C(=O)CC(c3ccccc3OCc3ccccc3)C2)C1c1cccc(OC(=O)c2ccc(Cl)cc2)c1 (single isomer, unassigned) [compound 191, 10-Acetyl-3-(2-benzyloxyphenyl)-11-[3-(4-chlorobenzoyloxy)phenyl]-2,3,4,5,10,11-hexahydro-dibenzo[b,e][1,4]diazepin-1-one]",> 42.7,2.88,
"CC(=O)N1c2ccccc2NC2=C(C(=O)CC(c3ccccc3OCc3ccccc3)C2)C1c1cccc(OC(=O)c2ccc(Cl)cc2)c1 (single isomer, unassigned) [compound 192, 10-Acetyl-3-(2-benzyloxyphenyl)-11-[3-(4-chlorobenzoyloxy)phenyl]-2,3,4,5,10,11-hexahydro-dibenzo[b,e][1,4]diazepin-1-one]",,,"IC50 [1, 6]: > 42.7 µM; EC50 [2, 5]: 4.87 µM"
"CC(=O)N1c2ccccc2NC2=C(C(=O)CC(C)(C)C2)[C@H]1c1ccc(OCc2ccccc2)cc1 (single isomer, unassigned) [compound 301]",1.52,15.3,
"CC(=O)N1c2ccccc2NC2=C(C(=O)CC(C)(C)C2)[C@@H]1c1ccc(OCc2ccccc2)cc1 (single isomer, unassigned) [compound 302]",92.5,1.87,
"CC(=O)N1c2ccccc2NC2=C(C(=O)CC(C)(C)C2)[C@H]1c1ccc(OCc2ccccc2)cc1Cl (single isomer, unassigned) [compound 305]",0.035,7.74,
"CC(=O)N1c2ccccc2NC2=C(C(=O)CC(C)(C)C2)[C@@H]1c1ccc(OCc2ccccc2)cc1Cl (single isomer, unassigned) [compound 306]",83.1,3.92,
"O=C1CC(c2ccccc2OCc2ccccc2)CC2=C1C(c1ccc(Cl)cc1Cl)Nc1ccccc1N2 (single isomer, unassigned) [compound 417, 3-(2-Benzyloxyphenyl)-11-(2,4-dichlorophenyl)-2,3,4,5,10,11-hexahydro-dibenzo[b,e][1,4]diazepin-1-one]",,,"IC50 [1, 7]: > 42.7 µM; EC50 [2, 8]: 8.33 µM"
"O=C1CC(c2ccccc2OCc2ccccc2)CC2=C1C(c1cccc(OCc3ccccc3)c1)Nc1ccccc1N2 (single isomer, unassigned) [compound 418, 3-(2-Benzyloxyphenyl)-11-(3-benzyloxyphenyl)-2,3,4,5,10,11-hexahydro-dibenzo[b,e][1,4]diazepin-1-one]",,,"IC50 [1, 7]: > 42.7 µM; EC50 [2, 8]: 2.16 µM"
"O=C1CC(c2ccccc2OCc2ccccc2)CC2=C1C(c1ccc(Cl)cc1Cl)Nc1ccccc1N2 (single isomer, unassigned) [compound 419, 3-(2-Benzyloxyphenyl)-11-(2,4-dichlorophenyl)-2,3,4,5,10,11-hexahydro-dibenzo[b,e][1,4]diazepin-1-one]",,,"IC50 [1, 9]: > 42.7 µM; EC50 [2, 10]: 4.82 µM"
"O=C1CC(c2ccccc2OCc2ccccc2)CC2=C1C(c1cccc(OCc3ccccc3)c1)Nc1ccccc1N2 (single isomer, unassigned) [compound 420, 3-(2-Benzyloxyphenyl)-11-(3-benzyloxyphenyl)-2,3,4,5,10,11-hexahydro-dibenzo[b,e][1,4]diazepin-1-one]",,,"IC50 [1, 9]: > 42.7 µM; EC50 [2, 10]: 3.23 µM"
"O=C1C[C@@H](c2ccccc2OCc2ccccc2)CC2=C1C(c1cccc(OC(=O)c3ccc(Cl)cc3)c1)Nc1ccccc1N2 (single isomer, unassigned) [compound 512, 11-[3-(4-Chlorobenzoyloxy)phenyl]-3-(2-benzyloxyphenyl)-2,3,4,5,10,11-hexahydro-dibenzo[b,e][1,4]diazepin-1-one]",,,"IC50 [1, 9]: 84.5 µM; EC50 [2, 10]: 8.42 µM"
CCCCC(=O)N1c2ccccc2NC2=C(C(=O)CC(C)(C)C2)C1c1ccc(OC)cc1OC (stereo not drawn) [compound 1],> 42.7,8.53,
CCOc1ccc(C2C3=C(CC(C)(C)CC3=O)Nc3ccccc3N2C(=O)C(F)(F)F)cc1 (stereo not drawn) [compound 2],> 42.7,26.5,
COc1ccc(OC)c(C2C3=C(CC(C)(C)CC3=O)Nc3ccccc3N2C(=O)C(F)(F)F)c1 (stereo not drawn) [compound 3],> 42.7,> 32,
CC(=O)N1c2ccccc2NC2=C(C(=O)CC(C)(C)C2)C1c1ccc(F)cc1 (stereo not drawn) [compound 4],> 42.7,> 32,
CC(C)C(=O)N1c2ccccc2NC2=C(C(=O)CC(C)(C)C2)C1c1ccc(C(F)(F)F)cc1 (stereo not drawn) [compound 5],> 42.7,19.9,
CCCCCC(=O)N1c2ccccc2NC2=C(C(=O)CC(C)(C)C2)C1c1ccccc1OCc1ccccc1 (stereo not drawn) [compound 6],> 42.7,7.32,
CCCCC(=O)N1c2ccccc2NC2=C(C(=O)CC(C)(C)C2)C1c1ccc(Cl)cc1 (stereo not drawn) [compound 7],> 42.7,8.31,
CN(C)c1ccc(C2C3=C(CC(C)(C)CC3=O)Nc3ccccc3N2C(=O)Cc2ccc(Cl)cc2)cc1 (stereo not drawn) [compound 8],> 42.7,5.65,
CC(C)CC(=O)N1c2ccccc2NC2=C(C(=O)CC(C)(C)C2)C1c1ccc(Cl)cc1 (stereo not drawn) [compound 9],> 42.7,3.61,
CCCCC(=O)N1c2ccccc2NC2=C(C(=O)CC(C)(C)C2)C1c1ccc(F)cc1 (stereo not drawn) [compound 10],> 33.3,19.5,
CCC(=O)N1c2ccccc2NC2=C(C(=O)CC(C)(C)C2)C1c1ccccc1OCc1ccccc1 (stereo not drawn) [compound 11],> 42.7,14.7,
COc1ccc(C2C3=C(CC(C)(C)CC3=O)Nc3ccccc3N2C(=O)Cc2ccc(Cl)cc2)cc1 (stereo not drawn) [compound 12],> 42.7,3.11,
CC1(C)CC(=O)C2=C(C1)Nc1ccccc1N(C(=O)c1ccccc1)C2c1ccc([N+](=O)[O-])cc1 (stereo not drawn) [compound 13],> 42.7,20.4,
